Measured values taken from patent US20250339569A1, “CARBONIC ANHYDRASE IX LIGANDS” (priority 2021, published 2025).
Starred links: 1 amine or outer side, 2 acyl side, 3 side chain; linkers in the order of their positions; H or OH if unused. Positions of bridges follow the written chain, without caps; N, C: chain ends. Non-standard residues stand in square brackets, D forms with d. Residues, ends and D or L forms follow the SMILES beside them. ξ: configuration not given here. *: point of attachment. NH(CH2)3NH(O2Oc(DOTA)) = O=C(O)CN1CCN(CC(=O)O)CCN(CC(=O)NCCOCCOCC(=O)NCCCN*)CCN(CC(=O)O)CC1; DOTA = O=C(O)CN1CCN(CC(=O)O)CCN(CC(=O)*)CCN(CC(=O)O)CC1; X66 = NC(=O)CCC(=O)Nc1cccc(C[C@H](N[*:1])C(=O)[*:2])c1; ξTrp(5-Me) = Cc1ccc2[nH]cc(CC(N)C(=O)O)c2c1; Phe(4-NH2) = Nc1ccc(C[C@H](N)C(=O)O)cc1; mXylylene = c1cc(C[*:1])cc(C[*:2])c1; Hydrocinnamoyl = O=C(CCc1ccccc1)*; Orn(Me2) = CN(C)CCC[C@H](N)C(=O)O; X2 = O=C(CN1CCC(N[*:1])CC1)[*:2]; tBuAla = CC(C)(C)C[C@H](N)C(=O)O; Isovaleryl = CC(C)CC(=O)*; Orn = NCCC[C@H](N)C(=O)O; Thp = NC1(C(=O)O)CCOCC1; Hexanoyl = CCCCCC(=O)*; X56 = O=C(c1nccs1)*; Sar = CNCC(=O)O

Each compound was assayed against T1, CAIX-expressing human HT-29 colorectal cancer cells (Homo sapiens, UniProt Q16790) (assay: FACS binding assay (IC50 determination, competition with tracer 3BP-2776 or 3BP-4149)). Details: FACS binding assay, HT-29 cells, competition with tracer 3BP-2776 (10 nM, biotin-labeled), 4° C., 1 hour; read-out: pIC50 category (activity) (converted).
T1 construct: CAIX-expressing human HT-29 colorectal cancer cells; host or cells: HT-29 human colorectal cancer cells
Procedure: In order to determine binding of compounds according to the present invention to CAIX-expressing cells, a FACS binding assay was established.
CAIX-expressing human HT-29 colorectal cancer cells (DSMZ, RRID: CVCL_0320) were cultured in McCoys's 5A modified medium (Biochrom, #F1015) including 10% fetal calf serum (FCS), 2 mM L-glutamine, 100 U/ml penicillin and 100 μg/mL streptomycin. Cells were detached with Accutase (Biolegend, #423201) and washed in FACS buffer (PBS including 1% FCS). Cells were diluted in FACS buffer to a final concentration of 500.000 cells per ml. 200 μL of the cell suspension were transferred to a u-shaped non-binding 96-well plate (Greiner) and cells were washed in ice-cold FACS buffer.
When biotinylated compounds were used an additional incubation step with 1 μg/mL APC-Streptavidin (Miltenyi; #130-106-791) in 50 μL FACS buffer for 30 minutes on ice was performed.
Cells were washed twice with ice-cold FACS buffer and analyzed in an Attune NxT flow cytometer (Thermo Fisher). Median fluorescence intensities (MFI) of the APC/Cy5-channel were calculated by Attune NxT software. MFI values were plotted against peptide concentration and four parameter logistic (4PL) curve fitting and EC50/pEC50 or IC50/pIC50 calculations were performed using ActivityBase software.

Compound	IC50 [µM]
CC(C)C[C@@H]1NC(=O)[C@H](Cc2c[nH]c3ccccc23)NC(=O)[C@H](CCCN(C)C)NC(=O)[C@H]2CCCN2C(=O)[C@H](CCC(=O)O)NC(=O)[C@@H](NC(=O)[C@H](Cc2ccc(O)cc2)NC(=O)[C@@H](NC(=O)CN2CCC(NC(=O)CN3CCN(CC(=O)O)CCN(CC(=O)O)CCN(CC(=O)O)CC3)CC2)C(C)C)CSCc2cccc(c2)CSC[C@@H](C(N)=O)NC(=O)[C@H](CO)NC(=O)[C@H](Cc2c[nH]c3ccccc23)NC(=O)[C@H]([C@@H](C)O)NC1=O [3BP-4098] ({DOTA}-[X2]VYCE[dP][Orn(Me2)]WLTWSC-NH2; linker 4-13 via mXylylene)	0.01 to 0.0794
CC(C)C[C@@H]1NC(=O)[C@H](Cc2cccc(NC(=O)CCC(N)=O)c2)NC(=O)[C@H](CC(=O)O)NC(=O)[C@H]2CCCN2C(=O)[C@H](CCC(=O)O)NC(=O)[C@@H](NC(=O)[C@H](Cc2ccc(O)cc2)NC(=O)[C@@H](NC(=O)CN2CCC(NC(=O)CN3CCN(CC(=O)O)CCN(CC(=O)O)CCN(CC(=O)O)CC3)CC2)C(C)C)CSCc2cccc(c2)CSC[C@@H](C(N)=O)NC(=O)[C@H](CO)NC(=O)[C@H](Cc2c[nH]c3ccccc23)NC(=O)[C@H]([C@@H](C)O)NC1=O [3BP-4238] ({DOTA}-[X2]VYCE[dP]D[X66]LTWSC-NH2; linker 4-13 via mXylylene)	0.01 to 0.0794
CC(C)C[C@@H]1NC(=O)[C@H](Cc2cccc(NC(=O)C3CCC(S(N)(=O)=O)CC3)c2)NC(=O)[C@H](CC(=O)O)NC(=O)[C@H]2CCCN2C(=O)[C@H](CCC(=O)O)NC(=O)[C@@H](NC(=O)[C@H](CCC(N)=O)NC(=O)CN2CCN(C(=O)CN3CCN(CC(=O)O)CCN(CC(=O)O)CCN(CC(=O)O)CC3)CC2)CSCc2cccc(c2)CSC[C@@H](C(N)=O)NC(=O)[C@H](CO)NC(=O)[C@H](Cc2c[nH]c3ccccc23)NC(=O)[C@H]([C@@H](C)O)NC1=O (stereo partly shown) [3BP-4787]	0.1 to 0.794
CC(C)C[C@@H]1NC(=O)[C@H](Cc2ccc(NC(=O)c3nccs3)cc2)NC(=O)[C@H](CC(=O)O)NC(=O)[C@H]2CCCN2C(=O)[C@H](CCC(=O)O)NC(=O)[C@@H](NC(=O)[C@H](Cc2ccc(O)cc2)NC(=O)[C@@H](NC(=O)CN2CCC(NC(=O)CN3CCN(CC(=O)O)CCN(CC(=O)O)CCN(CC(=O)O)CC3)CC2)C(C)C)CSCc2cccc(c2)CSC[C@@H](C(N)=O)NC(=O)[C@H](CO)NC(=O)[C@H](Cc2c[nH]c3ccccc23)NC(=O)[C@H]([C@@H](C)O)NC1=O [3BP-4180] ({DOTA}-[X2]VYCE[dP]D[Phe(4-NH2)](X56)LTWSC-NH2; linker 4-13 via mXylylene)	0.1 to 0.794

Second part, the compound after the results:

IC50 [µM]	Compound
0.01 to 0.0794	CC(=O)N[C@H](C(=O)N[C@@H](Cc1ccc(O)cc1)C(=O)N[C@H]1CSCc2cccc(c2)CSC[C@@H](C(N)=O)NC(=O)[C@H](CO)NC(=O)[C@H](Cc2c[nH]c3ccccc23)NC(=O)[C@@H]2CC(=O)NCCCC[C@H](NC(=O)[C@H]3CCCN3C(=O)[C@H](CCC(=O)O)NC1=O)C(=O)N[C@@H](Cc1c[nH]c3ccccc13)C(=O)N[C@@H](CC(C)C)C(=O)N2)C(C)C [3BP-4046] (Ac-VYCE[dP]KWLDWSC-NH2; linker 3-12 via mXylylene; lactam 6-9)
< 0.01	CC(=O)N[C@H](C(=O)N[C@@H](Cc1ccc(O)cc1)C(=O)N[C@H]1CSCc2cccc(c2)CSC[C@@H](C(N)=O)NC(=O)[C@H](CO)NC(=O)[C@H](Cc2c[nH]c3ccccc23)NC(=O)[C@@H]2CC(=O)NCCC[C@H](NC(=O)[C@H]3CCCN3C(=O)[C@H](CCC(=O)O)NC1=O)C(=O)N[C@@H](Cc1c[nH]c3ccccc13)C(=O)N[C@@H](CC(C)C)C(=O)N2)C(C)C [3BP-4005] (Ac-VYCE[dP][Orn]WLDWSC-NH2; linker 3-12 via mXylylene; lactam 6-9)

Same assay, conditions: FACS competition on HT-29 cells, Tracer ID 3BP-2776 (10 nM, biotin-labeled), 4° C., 1 hour; read-out: pIC50 category (activity) (converted)

Compound	IC50 [µM]
CC(C)[C@H](NC(=O)CN1CCC(NC(=O)CN2CCN(CC(=O)O)CCN(CC(=O)O)CCN(CC(=O)O)CC2)CC1)C(=O)N[C@@H](Cc1ccc(O)cc1)C(=O)N[C@H]1CSCc2cccc(c2)CSC[C@@H](C(N)=O)NC(=O)[C@H](CO)NC(=O)[C@H](Cc2c[nH]c3ccccc23)NC(=O)[C@H]([C@@H](C)O)NC(=O)C2(CCOCC2)NC(=O)[C@H](Cc2c[nH]c3ccccc23)NC(=O)[C@H](CC(=O)O)NC(=O)[C@H]2CCCN2C(=O)[C@H](CCC(=O)O)NC1=O [3BP-3585] ({DOTA}-[X2]VYCE[dP]DW[Thp]TWSC-NH2; linker 4-13 via mXylylene)	< 0.01
CC(C)CC(=O)N[C@@H](Cc1ccccc1)C(=O)N[C@H]1CSCc2cccc(c2)CSC[C@@H](C(N)=O)NC(=O)[C@H](CCC(=O)NCCCNC(=O)COCCOCCNC(=O)CN2CCN(CC(=O)O)CCN(CC(=O)O)CCN(CC(=O)O)CC2)NC(=O)[C@H](Cc2c[nH]c3ccccc23)NC(=O)[C@H]([C@@H](C)O)NC(=O)[C@H](CC(C)C)NC(=O)[C@H](Cc2c[nH]c3ccccc23)NC(=O)[C@H](CC(=O)O)NC(=O)[C@H]2CCCN2C(=O)[C@H](CCC(=O)O)NC1=O [3BP-3742] (Isovaleryl-FCE[dP]DWLTWE(NH(CH2)3NH(O2Oc(DOTA)))C-NH2; linker 2-11 via mXylylene)	< 0.01

The remaining lines, values ahead:

IC50 [µM]	Compound
< 0.01	CC(=O)N[C@H](C(=O)N[C@@H](Cc1ccc(O)cc1)C(=O)N[C@H]1CSCc2cccc(c2)CSC[C@@H](C(N)=O)NC(=O)[C@H](CCC(N)=O)NC(=O)[C@H](Cc2c[nH]c3ccccc23)NC(=O)[C@H]([C@@H](C)O)NC(=O)[C@H](CC(C)C)NC(=O)C(Cc2c[nH]c3ccc(C)cc23)NC(=O)[C@H](CC(=O)O)NC(=O)CN(C)C(=O)[C@H](CCC(=O)O)NC1=O)C(C)C (stereo partly shown) [3BP-3290] (Ac-VYCE[Sar]D[ξTrp(5-Me)]LTWQC-NH2; linker 3-12 via mXylylene)
< 0.01	CC(C)C[C@@H]1NC(=O)[C@H](Cc2c[nH]c3ccccc23)NC(=O)[C@H](CC(=O)O)NC(=O)CNC(=O)[C@H](CCC(=O)O)NC(=O)[C@@H](NC(=O)[C@H](Cc2ccc(O)cc2)NC(=O)[C@@H](NC(=O)CCc2ccccc2)C(C)C)CSCc2cccc(c2)CSC[C@@H](C(N)=O)NC(=O)[C@H](CCC(N)=O)NC(=O)[C@H](Cc2c[nH]c3ccccc23)NC(=O)[C@H]([C@@H](C)O)NC1=O [3BP-3110] (Hydrocinnamoyl-VYCEGDWLTWQC-NH2; linker 3-12 via mXylylene)
< 0.01	CC[C@H](C)[C@H](NC(C)=O)C(=O)N[C@@H](Cc1ccc(O)cc1)C(=O)N[C@H]1CSCc2cccc(c2)CSC[C@@H](C(N)=O)NC(=O)[C@H](CO)NC(=O)[C@H](Cc2c[nH]c3ccccc23)NC(=O)[C@H]([C@@H](C)O)NC(=O)[C@H](CC(C)C)NC(=O)[C@H](Cc2c[nH]c3ccccc23)NC(=O)[C@H](CC(=O)O)NC(=O)[C@H]2CCCN2C(=O)[C@H](CCC(=O)O)NC1=O [3BP-3568] (Ac-IYCE[dP]DWLTWSC-NH2; linker 3-12 via mXylylene)
0.01 to 0.0794	CC(=O)N[C@@H](C(=O)N[C@@H](Cc1ccc(O)cc1)C(=O)N[C@H]1CSCc2cccc(c2)CSC[C@@H](C(N)=O)NC(=O)[C@H](CCC(N)=O)NC(=O)[C@H](Cc2c[nH]c3ccccc23)NC(=O)[C@H]([C@@H](C)O)NC(=O)[C@H](CC(C)C)NC(=O)[C@H](Cc2c[nH]c3ccccc23)NC(=O)[C@H](CC(=O)O)NC(=O)CNC(=O)[C@H](CCC(=O)O)NC1=O)C(C)C [3BP-3043] (Ac-[dV]YCEGDWLTWQC-NH2; linker 3-12 via mXylylene)
< 0.01	CCCCCC(=O)N[C@H](C(=O)N[C@@H](Cc1ccc(O)cc1)C(=O)N[C@H]1CSCc2cccc(c2)CSC[C@@H](C(N)=O)NC(=O)[C@H](CCC(N)=O)NC(=O)[C@H](Cc2c[nH]c3ccccc23)NC(=O)[C@H]([C@@H](C)O)NC(=O)[C@H](CC(C)C)NC(=O)[C@H](Cc2c[nH]c3ccccc23)NC(=O)[C@H](CC(=O)O)NC(=O)CNC(=O)[C@H](CCC(=O)O)NC1=O)C(C)C [3BP-3107] (Hexanoyl-VYCEGDWLTWQC-NH2; linker 3-12 via mXylylene)
< 0.01	CC(=O)N[C@H](C(=O)N[C@@H](CCCNC(=N)N)C(=O)N[C@H]1CSCc2cccc(c2)CSC[C@@H](C(N)=O)NC(=O)[C@H](CO)NC(=O)[C@H](Cc2c[nH]c3ccccc23)NC(=O)[C@H]([C@@H](C)O)NC(=O)[C@H](CC(C)C)NC(=O)[C@H](Cc2c[nH]c3ccccc23)NC(=O)[C@H](CC(=O)O)NC(=O)[C@H]2CCCN2C(=O)[C@H](CCC(=O)O)NC1=O)C(C)C [3BP-3588] (Ac-VRCE[dP]DWLTWSC-NH2; linker 3-12 via mXylylene)
< 0.01	CC(C)CC(=O)N[C@@H](CC(=O)O)C(=O)N[C@H]1CSCc2cccc(c2)CSC[C@@H](C(N)=O)NC(=O)[C@H](CO)NC(=O)[C@H](Cc2c[nH]c3ccccc23)NC(=O)[C@H]([C@@H](C)O)NC(=O)[C@H](CC(C)C)NC(=O)[C@H](Cc2c[nH]c3ccccc23)NC(=O)[C@H](CC(=O)O)NC(=O)[C@H]2CCCN2C(=O)[C@H](CCC(=O)O)NC1=O [3BP-3727] (Isovaleryl-DCE[dP]DWLTWSC-NH2; linker 2-11 via mXylylene)
< 0.01	CC(=O)N[C@H](C(=O)N[C@@H](Cc1ccc(O)cc1)C(=O)N[C@H]1CSCc2cccc(c2)CSC[C@@H](C(N)=O)NC(=O)[C@H](C)NC(=O)[C@H](Cc2c[nH]c3ccccc23)NC(=O)[C@H]([C@@H](C)O)NC(=O)[C@H](CC(C)(C)C)NC(=O)[C@H](Cc2c[nH]c3ccccc23)NC(=O)[C@H](CC(=O)O)NC(=O)[C@H]2CCCN2C(=O)[C@H](CCC(=O)O)NC1=O)C(C)C [3BP-3490] (Ac-VYCE[dP]DW[tBuAla]TWAC-NH2; linker 3-12 via mXylylene)
